{"source": "patent US12336540B2", "about": "“Method for controlling weeds” (SUMITOMO CHEMICAL COMPANY, LIMITED, priority 2019, dated 2025)", "key": {"[1]": {"test_system": "Palmer amaranth, waterhemp, kochia, common ragweed or marestail", "details": "spot foliar treatment of 20% of pot area, 560 g/ha dicamba acid equivalence, 150 L/ha; soybean, corn or cotton seeded immediately after, grown 21 days; compared with plot without crop and plot with uniform blanket treatment at 560 g/ha", "procedure": "(§1) The evaluation of the herbicidal efficacy is classified into 0 to 100, where the numeral “0” indicates no or little difference in the state of emergence or growth of weeds under test at the time of examination as compared with untreated weeds, and the numeral “100” indicates the complete death of weeds under test or the complete inhibition of emergence or growth of weeds under test.\nA pot is filled with a soil, and then Palmer amaranth, waterhemp, kochia, common ragweed or marestail is seeded at a corner portion of the soil. […] Immediately thereafter, soybean (Genuity Roundup Ready 2 Xtend), corn (Genuity Roundup Ready 2), or cotton (Genuity Roundup Ready 2 Xtend) is seeded in a corner portion different from vegetation patches of weeds in the soil, and grown in the greenhouse for 21 days. This is defined as the invention plot."}, "[2]": {"test_system": "Palmer amaranth, waterhemp, kochia, common ragweed or marestail", "details": "weeds and soybean, corn or cotton grown 14 days, spot foliar treatment of 20% of pot area, 560 g/ha dicamba acid equivalence, 150 L/ha, then grown 21 days; compared with plot without crop and plot with uniform blanket treatment at 560 g/ha", "procedure": "as §1\nA pot is filled with soil, and then Palmer amaranth, waterhemp, kochia, common ragweed, or marestail is seeded at a corner portion of the soil, and soybean (Genuity Roundup Ready 2 Xtend), corn (Genuity Roundup Ready 2), or cotton (Genuity Roundup Ready 2 Xtend) is seeded at another corner portion of the soil. […] Thereafter, the weeds and crops are grown in the greenhouse for 21 days. This is defined as the invention plot."}}, "note": "Where two headings read alike, the source gives them in different places."}
{"smiles": "CN(CCCN)CCCN.COc1c(Cl)ccc(Cl)c1C(=O)O", "note": "[dicamba-biproamine]", "values": [{"measurement": "weed control effect", "setting": "[1]", "value": "excellent weed control effect"}, {"measurement": "weed control effect", "setting": "[2]", "value": "excellent weed control effect"}]}
